Measurements from patent publication US11246946B2, “Methods of treatment using ultrasmall nanoparticles to induce cell death of nutrient-deprived cancer cells via ferroptosis” (priority 2015, dated 2022).

Experiments:
glutathione = assay: Glutathione quantification; assay type: cell-based; conditions: MCF10A, full or amino acid-free media, 24 hours; 15 μM particles or 400 μM BSO
Description: For glutathione measurements, HT-1080 cells were plated on 6 cm cell culture dishes, incubated with 15 μM α-MSH-tagged nanoparticles in amino acid-free DMEM+10% dialyzed FBS and harvested approximately 2 hours before the expected time of death. As controls, cells were treated with a mix of 3 parts full or amino acid-free DMEM and 1 part H2O, or 100 μM BSO in full media. Cells were washed 3× with cold PBS and harvested through cell scraping in 50 μL cold lysis buffer. Protein concentrations were measured using the BCA assay and sample volumes were adjusted so that each had the same final protein concentration. Total glutathione was measured using the Glutathione Assay Kit (Cayman Chemicals, 703002) and reduced glutathione was measured using the QuantiChrom™ Glutathione Assay Kit (BioAssay Systems, DIGT-250) according to manufacturer's instructions.

[1] = tested on: MCF10A human mammary epithelial cells; assay: Cell death (Sytox green+) by time-lapse microscopy, MCF10A; assay type: cell-based; conditions: for effect on nanoparticle-induced cell death / effect on α-MSH-PEG-C′ dot-induced cell death: AA-st plus 15 μM α-MSH-PEG-C′ dots, 40 hours; for effect on nanoparticle-induced cell death: 50 μM BHA, 200 μM ascorbic acid, 100 μM Trolox, 10 mM NAC, 5 mM GSH; for effect on α-MSH-PEG-C′ dot-induced cell death: inhibitor 1 μM
Description: (§1) MEF and HT1080 cells were cultured in Dulbecco's modified Eagle's medium (DMEM) (MSKCC Media Preparation Facility) supplemented with 10% fetal bovine serum (FBS, Sigma, St. Louis, Mo.) with penicillin/streptomycin (Corning, Corning, N.Y.). MCF10A cells were cultured in DMEM/F12 (Gibco, Grand Island, N.Y.) supplemented with 5% horse serum (Atlanta Biologicals, Flowery Branch, Ga.), 20 ng/ml EGF (Peprotech, Rocky Hill, N.J.), 10 μg/ml insulin (Sigma), 0.5 μg/ml hydrocortisone (Sigma), and 100 ng/ml cholera toxin (Sigma) with penicillin/streptomycin. M21, BxPC3, H1650, and 786-O cells were cultured in RPMI-1640 (Gibco) supplemented with 10% FBS with penicillin/streptomycin. SKOV3 cells were cultured in McCoy's 5a modified medium (Gibco) supplemented with 10% FBS with penicillin/streptomycin. Amino acid-free medium was prepared by dialyzing heat-inactivated FBS (for MEF, HT1080, M21, BxPC3, H1650, and SKOV3 cells) or horse serum (for MCF10A cells) for 4 h, followed by overnight incubation at 4° C. in phosphate-buffered saline (PBS) in MWCO 3500 dialysis tubing (21-152-9; Fisherbrand, Pittsburgh, Pa.) and addition to base media prepared without amino acids. PRetro-Lamp1-GFP was introduced into M21 cells by retroviral transduction, and stable cell lines were selected with puromycin (2 μg ml^−1).
(§2) NIS Elements software (Nikon, Melville, N.Y.) was used.

lipid ROS = assay: C11-BODIPY imaging of lipid ROS before cell death; assay type: cell-based; conditions: erastin 5 μM plus liproxstatin-1, 6 hours after control cells underwent cell death
Description: as §2

HT-1080 tumors = assay: HT-1080 flank xenograft, multi-dose i.v. particle treatment; assay type: in vivo, mice
Description: All animal experiments were performed in accordance with protocols approved by the Institutional Animal Care and Use Committee of Memorial Sloan-Kettering Cancer Center and followed NIH guidelines for animal welfare. Human melanoma (M21) xenografts were generated on the shaved flanks of immunodeficient male SCID/Beige (C.B-17/IcrHsd-Prkdc^scidLyst^bg-J) mice (6-8 weeks old; Harlan Laboratories, South Easton, Mass.). Human sarcoma HT1080 and 786-O flank xenografts[…]) were additionally generated using the same model for intravenous particle injection. Average initial tumor volumes of 45-75 mm^3 were used for all experiments.
Five million M21 cells, cultured in serum-supplemented media, were subcutaneously implanted into the right flank of mice using a 23-gauge trocar needle to establish melanoma xenografts 2 days after particle exposure (n=3) or without exposure (n=3). […] Tumor sizes were measured using calipers over the treatment interval. […] Two perpendicular diameters (d1≤d2) of the tumor used to calculate the tumor volume (V; 4/3·π·d1^2·d2/8) were measured with calipers daily following the injection of cells.
Volume-time profiles were compared between the two treatment groups using robust standard errors calculated using by a generalized estimating equations approach. […]

[2] = tested on: mouse embryo fibroblasts (MEF); assay: Cell death (Sytox green+) by time-lapse microscopy, MEF; assay type: cell-based; conditions: wt MEFs, 100 ng/ml TNFα, 1 μg/ml CHX and 20 μM zVAD, plus 30 μM Nec-1
Description: as §1, §2

amino acid-starved cells = conditions: amino acid-starvation conditions, FAC 400 μM
[3] = tested on: ferritin heavy chain (FTH1); assay: Ferritin heavy chain western blot; assay type: cell-based; conditions: amino acid-starved cells, 24 hours; 15 μM particles, FAC 400 μM, DFO 100 μM

Question: For `CCCCS(=N)(=O)CCC(N)C(=O)O` (stereo not shown) [BSO, Buthionine sulphoximine], which “reduced glutathione (GSH) levels” value (glutathione) is on record?
Answer: reduce glutathione levels

Question: `CC(=O)N[C@@H](CS)C(=O)O` [N-acetylcysteine] was tested. Which “effect on nanoparticle-induced cell death” value [1] did it give?
Answer: inhibited

Question: For `O=C1O[C@H]([C@@H](O)CO)C(O)=C1O` [ascorbic acid, Ascorbic acid], which “effect on nanoparticle-induced cell death” value [1] is on record?
Answer: inhibited

Question: With `COc1ccc(O)c(C(C)(C)C)c1` [butylated hydroxyanisole, Butylated hydroxyanisole] as the molecule, how does the “effect on nanoparticle-induced cell death” value [1] read?
Answer: inhibited

Question: For `C/C=C/[C@H]1O[C@@](O)([C@@H](C)[C@H](O)[C@H](C)[C@H]2OC(=O)/C(OC)=C/C(C)=C/[C@@H](C)[C@@H](O)[C@@H](CC)[C@@H](O)[C@H](C)C/C(C)=C/C=C/[C@@H]2OC)C[C@@H](O[C@H]2C[C@@H](O)[C@H](OC(N)=O)[C@@H](C)O2)[C@@H]1C` [concanamycin A, Concanamycin A], which cell death morphology ([1]; amino acid-free media, 100 nM ConA) is on record?
Answer: undergo cell death with morphologic features of apoptosis

Question: For `C[C@@H]1C[C@@H]([C@H](O)CC2CC(=O)NC(=O)C2)C(=O)[C@@H](C)C1` [cycloheximide, Cycloheximide], which “temporal pattern of apoptotic cell death” value ([1]; 50 μg/ml cycloheximide) is on record?
Answer: asynchronous pattern of cell death

Question: Which “effect on α-MSH-PEG-C′ dot-induced cell death” value [1] does the source give for `CCOC(=O)c1ccc(NC2CCCCC2)c(N)c1` [ferrostatin-1, Ferrostatin-1] here?
Answer: rescued cell viability

Question: For `N[C@@H](CCC(=O)N[C@@H](CS)C(=O)NCC(=O)O)C(=O)O` [glutathione, Glutathione], which “effect on nanoparticle-induced cell death” value [1] is on record?
Answer: inhibited

Question: Which “effect on α-MSH-PEG-C′ dot-induced cell death” value [1] does the source give for `Clc1cccc(CN=C2Nc3ccccc3NC23CCNCC3)c1` [liproxstatin-1, Liproxstatin-1] here?
Answer: rescued cell viability

Question: And the “effect on C11-BODIPY staining induced by erastin” value (lipid ROS)?
Answer: inhibits C11-BODIPY staining induced by erastin treatment

Question: And the “average daily tumor growth” value (HT-1080 tumors; HT1080, particle-exposed tumors (three 60 μM i.v. doses) treated with daily i.p. liproxstatin-1 125 mg/kg, 10 days, 95% CI: 10.1-18.9)?
Answer: 14.6 mm^3

Question: And the “difference in average daily tumor growth, particles plus liproxstatin-1 vs particles alone” value (HT-1080 tumors; HT1080, CI: 13.1 to 17.6, p<0.001)?
Answer: 15.3 mm^3

Question: With `CN1C(=O)C(Cc2c[nH]c3ccccc23)NC1=S` (stereo not shown) [necrostatin-1, Necrostatin-1] as the molecule, how does the “cell death on necroptosis induction” value [2] read?
Answer: do not undergo cell death

Question: `Cc1c(C)c2c(c(C)c1O)CCC(C)(C(=O)O)O2` (stereo not shown) [trolox, Trolox] was tested. Which “effect on nanoparticle-induced cell death” value [1] did it give?
Answer: inhibited

Question: For Ferric ammonium citrate, which “percent cell death (Sytox green+)” value (amino acid-starved cells) is on record?
Answer: sufficient to mimic α-MSH-PEG-C′ dot-induced death

Question: And the “ferritin heavy chain (FTH1) expression” value [3]?
Answer: increased
